{"source": "ChEMBL document CHEMBL3886494", "about": "“2′-cyano substituted nucleoside derivatives and methods of use thereof for the treatment of viral diseases” (2016)", "data": [{"biological_target": "Genome polyprotein (Hepatitis C virus genotype 1b (isolate BK) (HCV), UniProt P26663)", "sequence (P26663 2420-3010 limits assumed)": "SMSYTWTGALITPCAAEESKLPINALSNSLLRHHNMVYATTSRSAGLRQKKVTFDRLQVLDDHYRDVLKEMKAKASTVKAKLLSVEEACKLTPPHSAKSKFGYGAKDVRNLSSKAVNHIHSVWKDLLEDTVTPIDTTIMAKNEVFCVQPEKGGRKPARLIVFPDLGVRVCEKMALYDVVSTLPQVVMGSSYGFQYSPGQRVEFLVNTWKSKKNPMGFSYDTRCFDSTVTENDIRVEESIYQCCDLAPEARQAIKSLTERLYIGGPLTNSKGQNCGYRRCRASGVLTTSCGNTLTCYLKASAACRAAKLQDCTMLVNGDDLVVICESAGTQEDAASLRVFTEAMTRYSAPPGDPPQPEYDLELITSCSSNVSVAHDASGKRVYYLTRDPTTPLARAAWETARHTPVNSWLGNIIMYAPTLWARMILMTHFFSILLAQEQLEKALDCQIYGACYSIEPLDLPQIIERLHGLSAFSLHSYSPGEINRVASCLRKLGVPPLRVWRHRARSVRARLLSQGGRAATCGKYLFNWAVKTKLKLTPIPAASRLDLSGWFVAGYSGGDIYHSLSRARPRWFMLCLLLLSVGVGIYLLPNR", "assay": "Inhibition Assay: To measure inhibition of the enzymatic activity of the HCV NS5B RNA-dependent RNA polymerase by the nucleoside triphosphate compounds of the present invention, a radiolabeled nucleotide incorporation assay was used. This assay is a modified version of the assay described in International Publication No. WO2002/057287. Briefly, 50 uL reactions containing 20 mM HEPES (pH 7.3); 7.5 mM DTT; 20 units/ml RNasIN; 1 uM each of ATP, GTP, UTP and CTP; 20 uCi/mL [33P]-CTP; 10 mM MgCl; 60 mM NaCl; 100 ug/ml BSA; 0.021 uM DCoH heteropolymer RNA template; and 5 nM NS5B (1b-BKΔ55) enzyme were incubated at room temperature for 1 hour. The assay was then terminated by the addition of 500 mM EDTA (50 uL). The reaction mixture was transferred to a Millipore DE81 filter plate and the incorporation of labeled CTP is determined using Packard TopCount. Compound IC50 values can then be calculated from experiments with 10 serial 3-fold dilutions of the inhibitor in duplicate.", "units": {"IC50": "nM"}, "values": [{"smiles": "C[C@@]1(C#N)[C@@H](c2cnc3c(N)ncnn23)O[C@@H](COP(=O)(O)OP(=O)(O)OP(=O)(O)O)[C@@H]1O", "IC50": 50}, {"smiles": "CC1(C#N)[C@@H](O)[C@H](COP(=O)(O)OP(=O)(O)OP(=O)(O)O)O[C@]1(C#N)c1cnc2c(=O)[nH]cnn12", "note": "(some centres not stated)", "IC50": "> 200000"}, {"smiles": "CO[C@]1(c2cnc3c(N)ncnn23)O[C@@H](COP(=O)(O)OP(=O)(O)OP(=O)(O)O)[C@H](O)C1(C)C#N", "note": "(some centres not stated)", "IC50": 3800}, {"smiles": "C[C@]1(C#N)[C@H](O)[C@H](COP(=O)(O)OP(=O)(O)OP(=O)(O)O)O[C@]1(C#N)c1ccc2c(N)ncnn12", "IC50": 1200}, {"smiles": "CO[C@]1(c2ccc3c(N)ncnn23)O[C@@H](COP(=O)(O)OP(=O)(O)OP(=O)(O)O)[C@H](O)[C@]1(C)C#N", "IC50": 87}, {"smiles": "C[C@@]1(C#N)[C@H](O)[C@@H](COP(=O)(O)OP(=O)(O)OP(=O)(O)O)O[C@H]1c1ccc2c(N)ncnn12", "IC50": 3}, {"smiles": "CC1(C#N)[C@H](O)[C@@H](COP(=O)(O)OP(=O)(O)OP(=O)(O)O)O[C@@]1(C#N)c1cnc2c(N)ncnn12", "note": "(some centres not stated)", "IC50": 87000}]}]}
